For data set [1] the following is noted: for 10′ Gel / Viscosity (cps) at 3 rpm / YP: after hot rolled at 150° F., about 10 ppb inhibitor in tap water; for shale inhibiting characteristics: summary of Tables 6-9.
Description: This test procedure uses pint jars that are filled with one barrel equivalent of tap water and about 10 ppb of a shale inhibitor. Tap water was used as a control sample. […] After stirring the samples for about 30 minutes, the rheologies were measured and then the samples were heat aged overnight at about 150° F. After the samples were cooled the rheologies were measured and recorded. This procedure was carried out for each sample until all of the samples were too thick to measure.
The subject of data set [2] is luminescent bacteria. The settings on record: for EC50 (15): reduces light emission by 50% at 15 minutes at 15° C.; for toxicity results: summary of Tables 6-9.

Like-named read-outs stand apart in the source and are kept apart here.

With `[Cl-].[K+]` [Potassium Chloride, reference compound], in data set [1] (50 ppb Bentonite), the “10′ Gel” value amounted to 26, the “Viscosity (cps) at 3 rpm” value came to 12 cps and the YP was found to be 9. Also, in data set [1] (60 ppb Bentonite), the “10′ Gel” value was determined as 63, the “Viscosity (cps) at 3 rpm” value stood at 48 cps and the YP was found to be 45. Moreover, in data set [1] (70 ppb Bentonite), the “10′ Gel” value stood at 300, the “Viscosity (cps) at 3 rpm” value is recorded as 143 cps and the YP is recorded as 136.

Take Triethylamine Diethyl Sulfate: in data set [2], the “EC50 (15)” value came to 100% and the toxicity results is recorded as “good”. In data set [1] (50 ppb Bentonite), the “10′ Gel” value stood at 7, the “Viscosity (cps) at 3 rpm” value is recorded as 4 cps and the YP is on record as 6. In data set [1] (60 ppb Bentonite), the “10′ Gel” value is recorded as 9, the “Viscosity (cps) at 3 rpm” value is listed as 4 cps and the YP is recorded as 8. For the same compound, in data set [1] (70 ppb Bentonite), the “10′ Gel” value is recorded as 14, the “Viscosity (cps) at 3 rpm” value came out at 8 cps and the YP was found to be 45. In addition, the shale inhibiting characteristics entry in data set [1] is on record as “good”.

For the compound “Triethylamine Dimethyl Sulfate [A (Triethylamine Dimethyl Sulfate)]”, in data set [2], the “EC50 (15)” value is on record as 92.16% and the toxicity results is “good”. In data set [1] (50 ppb Bentonite), the “10′ Gel” value amounted to 3, the “Viscosity (cps) at 3 rpm” value was found to be 2 cps and the YP stood at 4. Further, in data set [1] (60 ppb Bentonite), the “10′ Gel” value stood at 4, the “Viscosity (cps) at 3 rpm” value was 3 cps and the YP amounted to 4. Besides, in data set [1] (70 ppb Bentonite), the “10′ Gel” value turned out to be 17, the “Viscosity (cps) at 3 rpm” value is 12 cps and the YP was found to be 48. Also, the shale inhibiting characteristics result in data set [1] is recorded as “good”.

The values are drawn from patent US8298996B2, “Low toxicity shale hydration inhibition agent and method of use” (M-I L.L.C., priority 2007, dated 2012).
